# Measured values as given in the NIST ThermoML archive (doi:10.1021/acs.jced.7b00564).
# Numbers after ± are expanded uncertainties.
# Experiment: xn = mol fraction of the nth substance listed
# Details: Gas, isochoric method
structure (smiles),measurement,setting,value
"F/C=C/C(F)(F)F [trans-1,3,3,3-tetrafluoropropene] + CC(C)C",specific volume,"303.15 K, 259.6 kPa, x2 = 0.516",0.1062 ± 0.0008 m3/kg
same,specific volume,"303.15 K, 267.9 kPa, x2 = 0.29",0.0895 ± 0.0008 m3/kg
same,specific volume,"303.15 K, 304.9 kPa, x2 = 0.685",0.1004 ± 0.0008 m3/kg
same,specific volume,"303.15 K, 305.5 kPa, x2 = 0.428",0.0844 ± 0.0008 m3/kg
same,specific volume,"303.15 K, 321 kPa, x2 = 0.612",0.089 ± 0.0009 m3/kg
same,specific volume,"303.15 K, 367.4 kPa, x2 = 0.755",0.0856 ± 0.0008 m3/kg
same,specific volume,"308.15 K, 264.5 kPa, x2 = 0.516",0.1062 ± 0.0008 m3/kg
same,specific volume,"308.15 K, 273 kPa, x2 = 0.29",0.0895 ± 0.0008 m3/kg
same,specific volume,"308.15 K, 310.7 kPa, x2 = 0.685",0.1004 ± 0.0008 m3/kg
same,specific volume,"308.15 K, 311.3 kPa, x2 = 0.428",0.0844 ± 0.0008 m3/kg
same,specific volume,"308.15 K, 327.2 kPa, x2 = 0.612",0.089 ± 0.0008 m3/kg
same,specific volume,"308.15 K, 374.9 kPa, x2 = 0.755",0.0856 ± 0.0008 m3/kg
same,specific volume,"313.15 K, 269.2 kPa, x2 = 0.516",0.1062 ± 0.0008 m3/kg
same,specific volume,"313.15 K, 277.9 kPa, x2 = 0.29",0.0896 ± 0.0007 m3/kg
same,specific volume,"313.15 K, 316.5 kPa, x2 = 0.685",0.1005 ± 0.0007 m3/kg
same,specific volume,"313.15 K, 317.1 kPa, x2 = 0.428",0.0844 ± 0.0008 m3/kg
same,specific volume,"313.15 K, 333.4 kPa, x2 = 0.612",0.0891 ± 0.0008 m3/kg
same,specific volume,"313.15 K, 382.2 kPa, x2 = 0.755",0.0857 ± 0.0008 m3/kg
same,specific volume,"318.15 K, 274 kPa, x2 = 0.516",0.1063 ± 0.0008 m3/kg
same,specific volume,"318.15 K, 282.8 kPa, x2 = 0.29",0.0896 ± 0.0007 m3/kg
same,specific volume,"318.15 K, 322.2 kPa, x2 = 0.685",0.1005 ± 0.0007 m3/kg
same,specific volume,"318.15 K, 322.8 kPa, x2 = 0.428",0.0845 ± 0.0008 m3/kg
same,specific volume,"318.15 K, 339.5 kPa, x2 = 0.612",0.0891 ± 0.0008 m3/kg
same,specific volume,"318.15 K, 389.5 kPa, x2 = 0.755",0.0857 ± 0.0007 m3/kg
same,specific volume,"323.15 K, 278.8 kPa, x2 = 0.516",0.1063 ± 0.0008 m3/kg
same,specific volume,"323.15 K, 287.8 kPa, x2 = 0.29",0.0896 ± 0.0007 m3/kg
same,specific volume,"323.15 K, 328 kPa, x2 = 0.685",0.1005 ± 0.0007 m3/kg
same,specific volume,"323.15 K, 328.5 kPa, x2 = 0.428",0.0845 ± 0.0008 m3/kg
same,specific volume,"323.15 K, 345.6 kPa, x2 = 0.612",0.0891 ± 0.0008 m3/kg
same,specific volume,"323.15 K, 396.8 kPa, x2 = 0.755",0.0857 ± 0.0007 m3/kg
same,specific volume,"328.15 K, 283.5 kPa, x2 = 0.516",0.1063 ± 0.0007 m3/kg
same,specific volume,"328.15 K, 292.7 kPa, x2 = 0.29",0.0896 ± 0.0007 m3/kg
same,specific volume,"328.15 K, 333.7 kPa, x2 = 0.685",0.1005 ± 0.0007 m3/kg
same,specific volume,"328.15 K, 334.2 kPa, x2 = 0.428",0.0845 ± 0.0007 m3/kg
same,specific volume,"328.15 K, 351.7 kPa, x2 = 0.612",0.0891 ± 0.0008 m3/kg
same,specific volume,"328.15 K, 404 kPa, x2 = 0.755",0.0857 ± 0.0007 m3/kg
same,specific volume,"333.15 K, 288.2 kPa, x2 = 0.516",0.1063 ± 0.0007 m3/kg
same,specific volume,"333.15 K, 297.6 kPa, x2 = 0.29",0.0896 ± 0.0007 m3/kg
same,specific volume,"333.15 K, 339.5 kPa, x2 = 0.685",0.1005 ± 0.0007 m3/kg
same,specific volume,"333.15 K, 339.9 kPa, x2 = 0.428",0.0845 ± 0.0007 m3/kg
same,specific volume,"333.15 K, 357.8 kPa, x2 = 0.612",0.0891 ± 0.0008 m3/kg
same,specific volume,"333.15 K, 411.2 kPa, x2 = 0.755",0.0857 ± 0.0007 m3/kg
same,specific volume,"338.15 K, 292.9 kPa, x2 = 0.516",0.1064 ± 0.0007 m3/kg
same,specific volume,"338.15 K, 302.5 kPa, x2 = 0.29",0.0897 ± 0.0007 m3/kg
same,specific volume,"338.15 K, 345.1 kPa, x2 = 0.685",0.1006 ± 0.0007 m3/kg
same,specific volume,"338.15 K, 345.6 kPa, x2 = 0.428",0.0845 ± 0.0007 m3/kg
same,specific volume,"338.15 K, 363.8 kPa, x2 = 0.612",0.0892 ± 0.0007 m3/kg
same,specific volume,"338.15 K, 418.3 kPa, x2 = 0.755",0.0857 ± 0.0007 m3/kg
same,specific volume,"343.15 K, 297.6 kPa, x2 = 0.516",0.1064 ± 0.0007 m3/kg
same,specific volume,"343.15 K, 307.4 kPa, x2 = 0.29",0.0897 ± 0.0007 m3/kg
same,specific volume,"343.15 K, 350.8 kPa, x2 = 0.685",0.1006 ± 0.0007 m3/kg
same,specific volume,"343.15 K, 351.2 kPa, x2 = 0.428",0.0846 ± 0.0007 m3/kg
same,specific volume,"343.15 K, 369.8 kPa, x2 = 0.612",0.0892 ± 0.0007 m3/kg
same,specific volume,"343.15 K, 425.4 kPa, x2 = 0.755",0.0858 ± 0.0007 m3/kg
same,specific volume,"348.15 K, 302.3 kPa, x2 = 0.516",0.1064 ± 0.0007 m3/kg
same,specific volume,"348.15 K, 312.2 kPa, x2 = 0.29",0.0897 ± 0.0007 m3/kg
same,specific volume,"348.15 K, 356.5 kPa, x2 = 0.685",0.1006 ± 0.0007 m3/kg
same,specific volume,"348.15 K, 356.9 kPa, x2 = 0.428",0.0846 ± 0.0007 m3/kg
same,specific volume,"348.15 K, 375.8 kPa, x2 = 0.612",0.0892 ± 0.0007 m3/kg
same,specific volume,"348.15 K, 432.4 kPa, x2 = 0.755",0.0858 ± 0.0007 m3/kg
same,specific volume,"353.15 K, 307 kPa, x2 = 0.516",0.1064 ± 0.0007 m3/kg
same,specific volume,"353.15 K, 317.1 kPa, x2 = 0.29",0.0897 ± 0.0007 m3/kg
same,specific volume,"353.15 K, 362.1 kPa, x2 = 0.685",0.1006 ± 0.0007 m3/kg
same,specific volume,"353.15 K, 362.6 kPa, x2 = 0.428",0.0846 ± 0.0007 m3/kg
same,specific volume,"353.15 K, 381.8 kPa, x2 = 0.612",0.0892 ± 0.0007 m3/kg
same,specific volume,"353.15 K, 439.4 kPa, x2 = 0.755",0.0858 ± 0.0007 m3/kg
same,specific volume,"358.15 K, 311.7 kPa, x2 = 0.516",0.1064 ± 0.0007 m3/kg
same,specific volume,"358.15 K, 321.9 kPa, x2 = 0.29",0.0897 ± 0.0006 m3/kg
same,specific volume,"358.15 K, 367.7 kPa, x2 = 0.685",0.1007 ± 0.0007 m3/kg
same,specific volume,"358.15 K, 368.2 kPa, x2 = 0.428",0.0846 ± 0.0007 m3/kg
same,specific volume,"358.15 K, 387.8 kPa, x2 = 0.612",0.0892 ± 0.0007 m3/kg
same,specific volume,"358.15 K, 446.5 kPa, x2 = 0.755",0.0858 ± 0.0007 m3/kg
same,specific volume,"363.15 K, 316.4 kPa, x2 = 0.516",0.1065 ± 0.0007 m3/kg
same,specific volume,"363.15 K, 326.8 kPa, x2 = 0.29",0.0898 ± 0.0006 m3/kg
same,specific volume,"363.15 K, 373.3 kPa, x2 = 0.685",0.1007 ± 0.0007 m3/kg
same,specific volume,"363.15 K, 373.9 kPa, x2 = 0.428",0.0846 ± 0.0007 m3/kg
same,specific volume,"363.15 K, 393.7 kPa, x2 = 0.612",0.0892 ± 0.0007 m3/kg
same,specific volume,"363.15 K, 453.5 kPa, x2 = 0.755",0.0858 ± 0.0006 m3/kg
same,specific volume,"368.15 K, 321.1 kPa, x2 = 0.516",0.1065 ± 0.0007 m3/kg
same,specific volume,"368.15 K, 331.6 kPa, x2 = 0.29",0.0898 ± 0.0006 m3/kg
same,specific volume,"368.15 K, 379 kPa, x2 = 0.685",0.1007 ± 0.0007 m3/kg
same,specific volume,"368.15 K, 379.5 kPa, x2 = 0.428",0.0846 ± 0.0007 m3/kg
same,specific volume,"368.15 K, 399.7 kPa, x2 = 0.612",0.0893 ± 0.0007 m3/kg
same,specific volume,"368.15 K, 460.5 kPa, x2 = 0.755",0.0859 ± 0.0006 m3/kg
same,specific volume,"373.15 K, 325.7 kPa, x2 = 0.516",0.1065 ± 0.0007 m3/kg
same,specific volume,"373.15 K, 336.5 kPa, x2 = 0.29",0.0898 ± 0.0006 m3/kg
same,specific volume,"373.15 K, 384.7 kPa, x2 = 0.685",0.1007 ± 0.0006 m3/kg
same,specific volume,"373.15 K, 385.1 kPa, x2 = 0.428",0.0847 ± 0.0006 m3/kg
same,specific volume,"373.15 K, 405.6 kPa, x2 = 0.612",0.0893 ± 0.0006 m3/kg
same,specific volume,"373.15 K, 467.6 kPa, x2 = 0.755",0.0859 ± 0.0006 m3/kg
same,specific volume,"378.15 K, 330.4 kPa, x2 = 0.516",0.1065 ± 0.0006 m3/kg
same,specific volume,"378.15 K, 341.4 kPa, x2 = 0.29",0.0898 ± 0.0006 m3/kg
same,specific volume,"378.15 K, 390.3 kPa, x2 = 0.685",0.1007 ± 0.0006 m3/kg
same,specific volume,"378.15 K, 390.7 kPa, x2 = 0.428",0.0847 ± 0.0006 m3/kg
same,specific volume,"378.15 K, 411.7 kPa, x2 = 0.612",0.0893 ± 0.0006 m3/kg
same,specific volume,"378.15 K, 474.5 kPa, x2 = 0.755",0.0859 ± 0.0006 m3/kg
same,specific volume,"383.15 K, 335.1 kPa, x2 = 0.516",0.1066 ± 0.0006 m3/kg
same,specific volume,"383.15 K, 346.2 kPa, x2 = 0.29",0.0898 ± 0.0006 m3/kg
same,specific volume,"383.15 K, 395.9 kPa, x2 = 0.685",0.1008 ± 0.0006 m3/kg
same,specific volume,"383.15 K, 396.3 kPa, x2 = 0.428",0.0847 ± 0.0006 m3/kg
same,specific volume,"383.15 K, 417.6 kPa, x2 = 0.612",0.0893 ± 0.0006 m3/kg
same,specific volume,"383.15 K, 481.6 kPa, x2 = 0.755",0.0859 ± 0.0006 m3/kg
